Measurements as given in patent US4952405A, “Method of treating M. avium infection” (Liposome Technology, Inc., priority 1988, dated 1990).
“Also recorded” adds a separate entry of the source.

Assays:
[1] = system: MAC 101 (serotype 1); assay: Efficacy against MAC infection in liver and spleen of beige mice; assay type: in vivo, Mycobacterium avium complex; beige mice; details: for bacteriocidal effect in RES organs (liver, spleen), words: day 22, FIGS. 3A, 3B
Description: (§1) Briefly, the animals were infected by I.V. injection of MAC, then treated with control, gentamicin, or gentamicin-liposome formulations 7 days later, with a total of five intravenous injections being given over a 9-day treatment period. The level of viable MAC units (cfu's) in the blood was examined at day 7 (before treatment), day 16 (immediately after the five treatment doses) and day 22. […] For both aminoglycoside drugs, dosages of 0.2 mg and 1.0 mg drug were given.
(§2) Immune deficient "beige" mice (Young, 1986) were infected intravenously with 5×10^6 of MAC 101 (serotype 1) on day 0. After 7 days, blood samples were drawn to quantitate the organisms in the blood prior to treatment. […] On the 16th day, the treated mice were bled and the number of viable MAC units in blood was determined. A week later (day 22), the mice were bled again and sacrificed. The liver and spleen were homogenized and the viable MAC were cultured in 7H10 agar for 10 days for colony counts.

[2] = system: MAC 101 (serotype 1); assay: Efficacy against MAC infection in blood of beige mice; assay type: in vivo, Mycobacterium avium complex; beige mice; details: for effect on viable MAC units in blood: 0.2 mg and 1.0 mg doses, five I.V. injections, day 7 to 22, FIGS. 2A, 2B; for effect on MAC in the blood: higher dose (1.0 mg)
Description: as §1, §2

[3] = Tolerability of higher gentamicin dose in MAC-infected mice; assay type: in vivo; details: about 4 mg per 20 gm mouse
Excerpt: This was confirmed by attempting to further reduce MAC infection by administering higher gentamicin dose.

[4] = system: serotype 4 strain of MAC; details: Yajko; cited from earlier work
[5] = system: MAC 101 serotype 1; details: cited from earlier work
[6] = system: MAC 101 serotype 1; assay: MIC against MAC 101 serotype 1 in culture; assay type: cell-based, Mycobacterium avium complex; details: strain 101 serotype 1, bacterial culture
Description: Among the aminoglycosides, amikacin has been used for treating MAC infection due to its relatively low minimum inhibitory concentration, particularly in the case of certain MAC serotypes. […] Gentamicin would therefore not be expected to be effective in vivo since the toxic level of gentamicin is about 12 μg/ml in the blood, and therefore it is not possible to maintain patients at the inhibitory dose for sustained therapeutic periods. It would be desirable to treat M. avium infection in humans with gentamicin, however, because of the relatively low cost of the drug.

[7] = cited from earlier work
[8] = Renal clearance / drug excretion, free vs liposomal; assay type: in vivo; details: after 4 days, mice
Description: To examine the difference in drug clearance between free aminoglycoside and an aminoglycoside-liposome composition, free amikacin and amikacin-liposomes were administered to groups of mice, as above, and the amount of drug excreted by the animals over a several-day period was examined.

Molecule | effect on MAC in the spleen ([1]; both doses) | bacteriocidal effect in RES organs (liver, spleen), words ([1]; listed as Free gentamicin) | bacteriocidal effect in RES organs (liver, spleen), words ([1]; listed as free gentamicin) | effect on MAC in the liver ([1]; high dose (1.0 mg/kg as printed)) | effect on MAC in the liver ([1]; low dose (0.2 mg/kg as printed)) | effect on viable MAC units in blood ([2]; listed as Free gentamicin) | effect on viable MAC units in blood ([2]; listed as free gentamicin) | effect on MAC in the blood [2] | tolerability / animal deaths [3] | MIC [4] [µg/mL] | minimum inhibitory concentration (MIC) [5] [µg/mL] | relative activity / MIC in MAC culture, amikacin vs gentamicin [6] | toxic level in the blood [7] | effect on viable MAC units in blood [2] | effect on viable MAC units in blood ([2]; listed as free amikacin) | drug excreted ([8]; 5760 min) | dose excreted at 96 h ([8]; mouse, in vivo, iv) [%]
gentamicin | moderate killing | only modest activity against infection in RES organs | about the same degree of bacteriocidal action as free amikacin | moderate killing activity | inhibitory effect on the growth of MAC | no measurable activity against MAC in the bloodstream | no appreciable inhibitory effect; also recorded: No appreciable inhibition; also recorded: largely ineffective | not gentamicin | large percentage of animal deaths | 16 to 32 | 36 | substantially less active than free amikacin | about 12 μg/ml |  |  |  | 
NCC[C@H](O)C(=O)N[C@@H]1C[C@H](N)[C@@H](O[C@H]2O[C@H](CN)[C@@H](O)[C@H](O)[C@H]2O)[C@H](O)[C@H]1O[C@H]1O[C@H](CO)[C@@H](O)[C@H](N)[C@H]1O [amikacin] |  |  |  |  |  |  |  | significant inhibitory effect on MAC in the blood |  | 16 to 32 | 2 to 4 | nearly an order of magnitude less than that of gentamicin |  | largely ineffective | Qualitatively similar results | about 80% | ~80
